Assay [1] relates to ERα-MED1 condensate at the Lac array in U2OS cells. In words: Lac array assay with tethered ER, MED1 immunofluorescence. It counts as cell-based, human. The conditions noted are these: for effect on ER/MED1 condensate at the Lac array: tethered ER, estrogen. From the text:
When the transcriptional apparatus is recruited to that site a mediator condensate is detectable by immunofluorescence (Middle) U20S-Lac cells were transfected with a construct expressing the Lac DBD fused to the ER LBD and GFP+/− a construct overexpressing MED1. […] (Right) Quantification of MED1 enrichment relative at the Lac array, error bars represent SD.
Constructs were assembled by NEB HIFI cloning in pSV2 mammalian expression vector containing an SV40 promoter driving expression of a mCherry-LacI fusion protein. The intrinsically disordered region of MED1, HP1α, or the activation domain of ESR1 was fused by the c-terminus to this recombinant protein, joined by the linker sequence […] (SEQ ID NO: 16). For experiments comparing FLTX1 enrichment at the array, U20S-Lac cells were plated onto chambered coverglass (1.5 Borosilicate Glass, Nunc Lab-Tek, 155409) and transfected with either MED1 IDR or HP1α constructs with lipofectamine 3000 (Thermofisher L3000015). After 24 hours, cells were treated with either 1 uM FLTX1 or vehicle (DMF). After 30 minutes, cells were imaged on the Zeiss LSM 880 confocal microscope with Airyscan detector with 63× objective at 37° C. For experiments with high MED1, cells grown in DMEM were plated on glass coverslips and transfected using lipofectamine 3000 (Thermofisher L3000015). A construct with a mammalian expression vector containing a PGK promoter driving the expression of MED1 fused to GFP was co-transfected in high MED1 conditions. […]
For analysis of Lac array data comparing MED1 or HP1α tethered, a region of interest was called using the signal in the Lac array (561 channel). The average fluorescent signal for FLTX1 (488 channel) was then measured in the region of interest and divided by the average fluorescence in the region of interest at the Lac array. […] For analysis of Lac array data for MED1 overexpression, enrichment was calculated by dividing the average fluorescent signal for MED1 immunofluorescence at the region of interest, defined by the ER tethered at the lac array, by MED1 immunofluorescence signal at a random nuclear region.

Assay [2] concerns MED1 condensates at MYC in MCF7 cells. Briefly: Immunofluorescence with DNA FISH, MED1 condensates at the MYC oncogene. The conditions noted are these: estrogen-starved MCF7 treated with estrogen or estrogen and tamoxifen. The format is cell-based, human. How it is done:
MCF7 cells were grown in estrogen-free DMEM for 3 days on Poly-L-ornithine coated coverslips in 24 well plates at an initial seeding density of 50,000 cells per well. Cells were then treated with vehicle, 10 uM estradiol, or 10 uM estradiol and 5 uM 4-hydroxytamoxifen for 45 minutes.
Cells on cover slips were then fixed in 4% paraformaldehyde. Immunofluorescence was performed as described above. After incubating the cells with the secondary antibodies, cells were washed three times in PBS for 5 min at RT, fixed with 4% PFA in PBS for 10 min and washed three times in PBS. Cells were incubated in 70% ethanol, 85% ethanol and then 100% ethanol for 1 minute at RT. Probe hybridization mixture was made mixing […], of FISH Hybridization Buffer (Agilent G9400A), 1 μl of FISH probes (SureFISH 8q24.21 MYC 294 kb G101211R-8) and 2 μL of water.
5 μL of mixture was added on a slide and coverslip was placed on top (cell-side toward the hybridization mixture). Coverslip was sealed using rubber cement. Once rubber cement solidified, genomic DNA and probes were denatured at 78° C. for 5 minutes and slides were incubated at 16° C. in the dark O/N. The coverslip was removed from slide and incubated in pre-warmed Wash Buffer 1 (Agilent, G9401A) at 73° C. for 2 minutes and in Wash Buffer 2 (Agilent, G9402A) for 1 minute at RT. […]

Assay [3] has as its system patient-derived ERα mutants and MED1. Briefly: In vitro droplet assay of patient-derived ERα mutants with MED1. It counts as biochemical, human. The conditions noted are these: 100 μM estrogen, 100 μM tamoxifen.
Assay [4] addresses T1, MED1 droplets (Homo sapiens, UniProt Q15648).
T1 construct: MED1—amino acids 600-1581; 6xHis (N); made in house; host or cells: LOBSTR cells (E. coli)
In words: In vitro droplet drug chase out experiment. It counts as binding. As to conditions: 100 μM FLTX1, 10-fold excess (1 mM) tamoxifen. How it is done: For chase-out experiments 5 μM labeled cisplatin-TR was added to a MED1 droplets reaction (10 μM MED1, 50 mM Tris-HCl pH 7.5, 10% glycerol, 1 mM DTT, 10% PEG) in order to form MED1 droplets concentrated with Cisplatin-TR. Unlabeled transplatin or unlabeled cisplatin (vehicle, 10 μM, 100 μM, or 500 μM) were added to the droplet mixture and the amount of labeled cisplatin-TR remaining in the droplet is measured after chase out. 100 μM fluorescent FLTX1 was added to a MED1 droplets reaction (10 μM MED1, 50 mM Tris-HCl pH 7.5, 10% glycerol, 1 mM DTT, 10% PEG) in order to form MED1 droplets concentrated with FLTX1.

Assay [5] relates to ERα point mutations. As to conditions: reference (52); cited from earlier work.

“Also recorded” adds a separate entry of the source.

T1 sequence (Q15648 600-1581): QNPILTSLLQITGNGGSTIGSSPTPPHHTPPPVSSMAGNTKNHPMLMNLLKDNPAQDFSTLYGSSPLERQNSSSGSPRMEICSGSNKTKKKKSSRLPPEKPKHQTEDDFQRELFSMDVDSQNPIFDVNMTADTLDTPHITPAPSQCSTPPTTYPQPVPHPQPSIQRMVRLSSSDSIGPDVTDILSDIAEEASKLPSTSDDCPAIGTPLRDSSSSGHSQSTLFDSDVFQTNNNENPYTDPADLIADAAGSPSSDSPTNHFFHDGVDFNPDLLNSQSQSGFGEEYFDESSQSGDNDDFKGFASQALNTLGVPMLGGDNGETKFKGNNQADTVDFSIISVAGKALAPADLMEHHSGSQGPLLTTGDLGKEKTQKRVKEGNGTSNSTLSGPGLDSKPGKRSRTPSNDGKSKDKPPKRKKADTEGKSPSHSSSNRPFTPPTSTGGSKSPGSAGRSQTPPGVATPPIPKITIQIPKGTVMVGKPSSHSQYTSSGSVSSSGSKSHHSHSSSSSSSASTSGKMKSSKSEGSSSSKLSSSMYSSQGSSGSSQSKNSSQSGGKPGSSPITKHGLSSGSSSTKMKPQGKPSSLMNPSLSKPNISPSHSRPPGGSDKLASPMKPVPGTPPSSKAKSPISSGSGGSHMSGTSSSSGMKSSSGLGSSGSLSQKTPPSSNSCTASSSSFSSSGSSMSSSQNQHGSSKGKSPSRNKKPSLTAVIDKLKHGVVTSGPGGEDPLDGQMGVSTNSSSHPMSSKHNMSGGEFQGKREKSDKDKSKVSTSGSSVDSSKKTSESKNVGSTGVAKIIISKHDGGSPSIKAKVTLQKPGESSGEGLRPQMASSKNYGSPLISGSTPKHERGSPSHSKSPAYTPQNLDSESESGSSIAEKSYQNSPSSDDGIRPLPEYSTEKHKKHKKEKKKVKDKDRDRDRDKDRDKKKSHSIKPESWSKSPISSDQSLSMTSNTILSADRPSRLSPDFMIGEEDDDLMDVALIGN

Turning to `CC/C(=C(\c1ccccc1)c1ccc(OCCN(C)C)cc1)c1ccccc1` [tamoxifen], the “effect on ERα-MED1 condensate at the Lac array when MED1 is overexpressed” value in assay [1] (MED1 overexpressed) is “unable to dissociate the ERα-MED1 condensate”. Further, the “effect on ER/MED1 condensate at the Lac array” value was “eliminated by tamoxifen” in assay [1]; “reduced ER (green) and MED1 (red) containing condensates” in assay [1] (listed as Tamoxifen). Further, the “MED1 condensates at the MYC oncogene” value in assay [2] was “reduces these; also recorded: not in the absence of estrogen or in the presence of estrogen and tamoxifen”. In assay [3], the “disruption of ERα mutant/MED1 condensates” value is on record as “not disrupted”. For the same molecule, the “chase out of FLTX1 from MED1 droplets” value in assay [4] was “diluted out”; in assay [4] (listed as Tamoxifen) it was “able to chase-out FLTX1”. For the same molecule, in assay [5], the “reduction of affinity for tamoxifen by ERα point mutations” value is given as “approximately 10 fold”.
